According to ChEMBL document CHEMBL1133640, “Structure-activity studies including a Psi(CH(2)-NH) scan of peptide YY (PYY) active site, PYY(22-36), for interaction with rat intestinal PYY receptors: development of analogues with potent in vivo activity in the intestine” (J Med Chem, 2000):
Where a SMILES comes first, the peptide text is derived from it. [ ]: non-standard residue; d: D form. The star is where a group is joined. X1 = C[C@@H](O)[C@@H](CN[C@@H](CCCN=C(N)N)C(=O)N[C@@H](CCC(N)=O)C(=O)N[C@@H](CCCN=C(N)N)C(=O)N[C@@H](Cc1ccc(O)cc1)C(N)=O)N*; X2 = N=C(N)NCCC[C@@H](CN[C@@H](CCC(N)=O)C(=O)N[C@@H](CCCNC(=N)N)C(=O)N[C@@H](Cc1ccc(O)cc1)C(N)=O)N*; Dip = N[C@H](C(=O)O)C(c1ccccc1)c1ccccc1; 1Nal = N[C@@H](Cc1cccc2ccccc12)C(=O)O; Tic = O=C(O)[C@@H]1Cc2ccccc2CN1; 3Thi = N[C@@H](Cc1ccsc1)C(=O)O

What was measured:
[1] = target: Neuropeptide Y receptor type 1 (Homo sapiens, UniProt P25929); assay: Affinity against Neuropeptide Y receptor Y1 in SK-N-MC cell line; format: cell-based
[2] = target: Neuropeptide Y receptor type 2 (Rattus norvegicus, UniProt Q9ERC0); assay: Antisecretory potency, affinity for intestinal PYY of rat jejunum by using short circuit current (SCC) method.; format: tissue-based
[3] = target: T1, Neuropeptide Y receptor type 2 (Homo sapiens, UniProt P49146); assay: Affinity against Neuropeptide Y receptor Y2 in SK-N-BE2 cell line
T1 sequence (P49146 whole entry): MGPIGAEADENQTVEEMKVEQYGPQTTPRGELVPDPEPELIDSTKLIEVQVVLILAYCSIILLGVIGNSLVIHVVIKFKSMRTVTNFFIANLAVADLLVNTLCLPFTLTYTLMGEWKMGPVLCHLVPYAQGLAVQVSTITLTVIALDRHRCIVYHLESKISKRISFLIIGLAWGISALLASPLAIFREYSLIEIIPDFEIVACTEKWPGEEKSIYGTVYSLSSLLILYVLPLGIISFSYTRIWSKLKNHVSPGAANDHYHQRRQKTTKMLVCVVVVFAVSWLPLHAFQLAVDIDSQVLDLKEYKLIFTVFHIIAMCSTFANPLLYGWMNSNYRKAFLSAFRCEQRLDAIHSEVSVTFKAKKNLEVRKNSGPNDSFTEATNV

Chain of Neuropeptide Y receptor type 1 (P25929 whole entry): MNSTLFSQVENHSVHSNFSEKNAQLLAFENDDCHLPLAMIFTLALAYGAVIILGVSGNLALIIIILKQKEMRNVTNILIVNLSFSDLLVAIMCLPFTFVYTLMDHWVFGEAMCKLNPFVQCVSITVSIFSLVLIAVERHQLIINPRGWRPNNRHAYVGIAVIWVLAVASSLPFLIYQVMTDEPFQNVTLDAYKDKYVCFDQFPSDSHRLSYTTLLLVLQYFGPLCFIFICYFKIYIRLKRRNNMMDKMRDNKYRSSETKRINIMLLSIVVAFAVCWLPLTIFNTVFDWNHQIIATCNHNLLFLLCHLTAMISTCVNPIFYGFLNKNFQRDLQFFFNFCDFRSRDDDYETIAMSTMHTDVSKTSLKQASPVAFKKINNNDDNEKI
Chain of Neuropeptide Y receptor type 2 (Rattus norvegicus, UniProt Q9ERC0) (Q9ERC0 whole entry): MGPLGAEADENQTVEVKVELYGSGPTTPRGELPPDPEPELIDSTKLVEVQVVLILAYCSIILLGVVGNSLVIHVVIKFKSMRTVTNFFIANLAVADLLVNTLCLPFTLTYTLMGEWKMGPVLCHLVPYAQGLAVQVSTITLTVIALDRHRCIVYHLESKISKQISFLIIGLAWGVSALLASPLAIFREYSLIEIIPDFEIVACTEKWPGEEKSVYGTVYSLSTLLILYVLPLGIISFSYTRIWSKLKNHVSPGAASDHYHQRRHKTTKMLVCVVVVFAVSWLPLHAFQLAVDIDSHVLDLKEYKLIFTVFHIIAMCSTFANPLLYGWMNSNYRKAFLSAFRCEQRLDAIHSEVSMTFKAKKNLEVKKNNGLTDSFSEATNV

| Compound | IC50 [1] | IC50 [2] | IC50 [3] | IC50 ([1]; sk-n-mc) |
| --- | --- | --- | --- | --- |
| Ac-ASLRHFLNLVTRQRY-NH2 | 764 nM | 2.3 nM | 1.83 nM | – |
| CC(=O)N[C@@H](C)C(=O)N[C@@H](CO)C(=O)N[C@@H](CC(C)C)C(=O)N[C@@H](CCCNC(=N)N)C(=O)N[C@@H](Cc1cnc[nH]1)C(=O)N[C@@H](Cc1ccc(O)cc1)C(=O)N[C@@H](CC(C)C)C(=O)N[C@@H](CC(N)=O)C(=O)N[C@@H](Cc1c[nH]c2ccccc12)C(=O)N[C@H](C(=O)N[C@H](C(=O)N[C@@H](CCCNC(=N)N)C(=O)N[C@@H](CCC(N)=O)C(=O)N[C@@H](CCCNC(=N)N)CN[C@@H](Cc1ccc(O)cc1)C(N)=O)[C@@H](C)O)C(C)C | 1510 nM | 0.28 nM | 1.39 nM | – |
| CC(=O)N[C@@H](C)C(=O)N[C@@H](CO)C(=O)N[C@@H](CC(C)C)C(=O)N[C@@H](CCCNC(=N)N)C(=O)N[C@@H](Cc1cnc[nH]1)C(=O)N[C@@H](Cc1ccc(O)cc1)C(=O)N[C@@H](CC(C)C)C(=O)N[C@@H](CC(N)=O)C(=O)N[C@@H](Cc1cccc2ccccc12)C(=O)N[C@H](C(=O)N[C@H](C(=O)N[C@@H](CCCNC(=N)N)C(=O)N[C@@H](CCC(N)=O)C(=O)N[C@@H](CCCNC(=N)N)C(=O)N[C@@H](Cc1ccc(O)cc1)C(N)=O)[C@@H](C)O)C(C)C (Ac-ASLRHYLN[1Nal]VTRQRY-NH2) | 159 nM | 3.54 nM | 1.09 nM | – |
| Ac-YSLRHFLNLVTRQRY-NH2 | 48.9 nM | 3.4 nM | 2.68 nM | – |
| CC(=O)N[C@@H](C)C(=O)N[C@@H](CO)C(=O)N[C@@H](CC(C)C)C(=O)N[C@@H](CCCN=C(N)N)C(=O)N[C@@H](Cc1c[nH]cn1)C(=O)N[C@@H](Cc1ccc(O)cc1)C(=O)N[C@@H](CC(C)C)C(=O)N[C@@H](CC(N)=O)C(=O)N[C@H](CN[C@H](C(=O)N[C@H](C(=O)N[C@@H](CCCN=C(N)N)C(=O)N[C@@H](CCC(N)=O)C(=O)N[C@@H](CCCN=C(N)N)C(=O)N[C@@H](Cc1ccc(O)cc1)C(N)=O)[C@@H](C)O)C(C)C)CC(C)C | 769 nM | > 100 nM | > 3000 nM | – |
| CC(=O)N[C@@H](C)C(=O)N[C@@H](CO)C(=O)N[C@@H](CC(C)C)C(=O)N[C@@H](CCCN=C(N)N)C(=O)N[C@@H](Cc1c[nH]cn1)C(=O)N[C@@H](Cc1ccc(O)cc1)C(=O)N[C@@H](CC(C)C)C(=O)N[C@@H](CC(N)=O)C(=O)N[C@@H](CC(C)C)C(=O)N[C@H](C(=O)N[C@H](CN[C@@H](CCCN=C(N)N)C(=O)N[C@@H](CCC(N)=O)C(=O)N[C@@H](CCCN=C(N)N)C(=O)N[C@@H](Cc1ccc(O)cc1)C(N)=O)[C@@H](C)O)C(C)C (Ac-ASLRHYLNLV-X1) | 1090 nM | 5.03 nM | 52 nM | – |
| CC(=O)N[C@@H](C)C(=O)N[C@@H](CO)C(=O)N[C@@H](CC(C)C)C(=O)N[C@@H](CCCN=C(N)N)C(=O)N[C@@H](Cc1c[nH]cn1)C(=O)N[C@@H](Cc1ccsc1)C(=O)N[C@@H](CC(C)C)C(=O)N[C@@H](CC(N)=O)C(=O)N[C@@H](CC(C)C)C(=O)N[C@H](C(=O)N[C@H](C(=O)N[C@@H](CCCN=C(N)N)C(=O)N[C@@H](CCC(N)=O)C(=O)N[C@@H](CCCN=C(N)N)C(=O)N[C@@H](Cc1ccc(O)cc1)C(N)=O)[C@@H](C)O)C(C)C (Ac-ASLRH[3Thi]LNLVTRQRY-NH2) | – | 1 nM | 2.63 nM | 257 nM |
| CC(=O)N[C@@H](C)C(=O)N[C@@H](CO)C(=O)N[C@@H](CC(C)C)C(=O)N[C@@H](CCCNC(=N)N)C(=O)N[C@@H](Cc1cnc[nH]1)C(=O)N[C@@H](Cc1ccc(O)cc1)C(=O)N[C@@H](CC(C)C)C(=O)N[C@@H](CC(N)=O)C(=O)N[C@@H](CC(C)C)C(=O)N[C@H](C(=O)N[C@H](C(=O)N[C@@H](CCCNC(=N)N)C(=O)N[C@@H](CCC(N)=O)C(=O)N[C@@H](CCCNC(=N)N)C(=O)N[C@@H](Cc1ccc(O)cc1)C(N)=O)[C@@H](C)O)C(C)C | > 1000 nM | 0.91 nM | 1.3 nM | – |
| CC(=O)N[C@@H](C)C(=O)N[C@@H](CO)C(=O)N[C@@H](CC(C)C)C(=O)N[C@@H](CCCN=C(N)N)C(=O)N[C@@H](Cc1c[nH]cn1)C(=O)N[C@@H](Cc1ccc(O)cc1)C(=O)N[C@@H](CC(C)C)C(=O)N[C@@H](CC(N)=O)C(=O)N[C@H](Cc1c[nH]c2ccccc12)C(=O)N[C@H](C(=O)N[C@H](C(=O)N[C@@H](CCCN=C(N)N)C(=O)N[C@@H](CCC(N)=O)C(=O)N[C@@H](CCCN=C(N)N)C(=O)N[C@@H](Cc1ccc(O)cc1)C(N)=O)[C@@H](C)O)C(C)C | 47.9 nM | > 100 nM | 56.5 nM | – |
| CC(=O)N[C@@H](C)C(=O)N[C@@H](CO)C(=O)N[C@@H](CC(C)C)C(=O)N[C@@H](CCCN=C(N)N)C(=O)N[C@@H](Cc1c[nH]cn1)C(=O)N[C@H](CN[C@@H](CC(C)C)C(=O)N[C@@H](CC(N)=O)C(=O)N[C@@H](CC(C)C)C(=O)N[C@H](C(=O)N[C@H](C(=O)N[C@@H](CCCN=C(N)N)C(=O)N[C@@H](CCC(N)=O)C(=O)N[C@@H](CCCN=C(N)N)C(=O)N[C@@H](Cc1ccc(O)cc1)C(N)=O)[C@@H](C)O)C(C)C)Cc1ccc(O)cc1 | 1270 nM | > 100 nM | 864 nM | – |
| Ac-ASLRHYWNWVTRQRY-NH2 | 233 nM | 1.07 nM | 3.17 nM | – |
| CC(=O)N[C@@H](C)C(=O)N[C@@H](CO)C(=O)N[C@@H](CC(C)C)C(=O)N[C@@H](CCCNC(=N)N)C(=O)N[C@@H](Cc1cnc[nH]1)C(=O)N1Cc2ccccc2C[C@H]1C(=O)N[C@@H](CC(C)C)C(=O)N[C@@H](CC(N)=O)C(=O)N[C@@H](CC(C)C)C(=O)N[C@H](C(=O)N[C@H](C(=O)N[C@@H](CCCNC(=N)N)C(=O)N[C@@H](CCC(N)=O)C(=O)N[C@@H](CCCNC(=N)N)C(=O)N[C@@H](Cc1ccc(O)cc1)C(N)=O)[C@@H](C)O)C(C)C (Ac-ASLRH[Tic]LNLVTRQRY-NH2) | – | 3.4 nM | 186 nM | – |
| CC(=O)N[C@@H](C)C(=O)N[C@@H](CO)C(=O)N[C@@H](CC(C)C)C(=O)N[C@@H](CCCN=C(N)N)C(=O)N[C@@H](Cc1c[nH]cn1)C(=O)N[C@@H](Cc1ccc(O)cc1)C(=O)N[C@H](CN[C@@H](CC(N)=O)C(=O)N[C@@H](CC(C)C)C(=O)N[C@H](C(=O)N[C@H](C(=O)N[C@@H](CCCN=C(N)N)C(=O)N[C@@H](CCC(N)=O)C(=O)N[C@@H](CCCN=C(N)N)C(=O)N[C@@H](Cc1ccc(O)cc1)C(N)=O)[C@@H](C)O)C(C)C)CC(C)C | 1390 nM | 0.36 nM | 55 nM | – |
| CC(=O)N[C@@H](C)C(=O)N[C@@H](CO)C(=O)N[C@@H](CC(C)C)C(=O)N[C@@H](CCCNC(=N)N)C(=O)N[C@@H](Cc1cnc[nH]1)C(=O)N[C@@H](Cc1ccc(O)cc1)C(=O)N[C@@H](CC(C)C)C(=O)N[C@@H](CC(N)=O)C(=O)N[C@@H](CC(C)C)C(=O)N[C@H](C(=O)N[C@H](C(=O)N[C@@H](CCCNC(=N)N)C(=O)N[C@@H](CCC(N)=O)C(=O)N[C@@H](CCCNC(=N)N)C(=O)N[C@H](C(N)=O)C(c1ccccc1)c1ccccc1)[C@@H](C)O)C(C)C (Ac-ASLRHYLNLVTRQR[Dip]-NH2) | 1250 nM | > 100 nM | > 10000 nM | – |
| CC(=O)N[C@@H](C)C(=O)N[C@@H](CO)C(=O)N[C@@H](CC(C)C)C(=O)N[C@@H](CCCNC(=N)N)C(=O)N[C@@H](Cc1cnc[nH]1)C(=O)N[C@H](C(=O)N[C@@H](CC(C)C)C(=O)N[C@@H](CC(N)=O)C(=O)N[C@@H](CC(C)C)C(=O)N[C@H](C(=O)N[C@H](C(=O)N[C@@H](CCCNC(=N)N)C(=O)N[C@@H](CCC(N)=O)C(=O)N[C@@H](CCCNC(=N)N)C(=O)N[C@@H](Cc1ccc(O)cc1)C(N)=O)[C@@H](C)O)C(C)C)C(c1ccccc1)c1ccccc1 (Ac-ASLRH[Dip]LNLVTRQRY-NH2) | 447 nM | 16.5 nM | 10 nM | – |
| Ac-FSLRHFLNLVTRQRY-NH2 | 275 nM | – | 5.61 nM | – |
| CCCC[C@H](NC(=O)[C@H](CO)NC(=O)[C@H](C)NC(C)=O)C(=O)N[C@@H](CCCN=C(N)N)C(=O)N[C@@H](Cc1c[nH]cn1)C(=O)N[C@@H](Cc1ccc(O)cc1)C(=O)N[C@@H](CCCC)C(=O)N[C@@H](CC(N)=O)C(=O)N[C@@H](CCCC)C(=O)N[C@@H](CCC)C(=O)N[C@H](C(=O)N[C@@H](CCCN=C(N)N)C(=O)N[C@@H](CCC(N)=O)C(=O)N[C@@H](CCCN=C(N)N)C(=O)N[C@@H](Cc1ccc(O)cc1)C(N)=O)[C@@H](C)O | 1590 nM | 0.59 nM | 57 nM | – |
| CC(=O)N[C@@H](C)C(=O)N[C@@H](CO)C(=O)N[C@@H](CC(C)C)C(=O)N[C@@H](CCCNC(=N)N)C(=O)N[C@@H](Cc1cnc[nH]1)C(=O)N[C@@H](Cc1ccc(O)cc1)C(=O)N[C@@H](CC(C)C)C(=O)N[C@@H](CC(N)=O)C(=O)N[C@@H](CC(C)C)C(=O)N[C@H](C(=O)N[C@H](C(=O)N[C@@H](CCCNC(=N)N)CN[C@@H](CCC(N)=O)C(=O)N[C@@H](CCCNC(=N)N)C(=O)N[C@@H](Cc1ccc(O)cc1)C(N)=O)[C@@H](C)O)C(C)C (Ac-ASLRHYLNLVT-X2) | 1250 nM | > 100 nM | > 10000 nM | – |
| CC(=O)N[C@@H](C)C(=O)N[C@@H](CO)C(=O)N[C@@H](CC(C)C)C(=O)N[C@@H](CCCN=C(N)N)C(=O)N[C@@H](Cc1c[nH]cn1)C(=O)N[C@@H](Cc1cccc2ccccc12)C(=O)N[C@@H](CC(C)C)C(=O)N[C@@H](CC(N)=O)C(=O)N[C@@H](CC(C)C)C(=O)N[C@H](C(=O)N[C@H](C(=O)N[C@@H](CCCN=C(N)N)C(=O)N[C@@H](CCC(N)=O)C(=O)N[C@@H](CCCN=C(N)N)C(=O)N[C@@H](Cc1ccc(O)cc1)C(N)=O)[C@@H](C)O)C(C)C (Ac-ASLRH[1Nal]LNLVTRQRY-NH2) | 88.3 nM | 6.6 nM | 7.08 nM | – |
| Ac-ASLRHFLNLVTRQRF-NH2 | > 10000 nM | 14.1 nM | 1.16 nM | – |
